Where a name gives a salt, the structure may show the parent alone.
Columns and labels:
[1] = no reference printed for this property; cited from earlier work
[2] = test system: human ODC; set-up: method as in earlier work; conditions: 49−51; cited from earlier work
[3] = molecular target: T1, endogenous ODC in Kelly neuroblastoma cells (Homo sapiens, UniProt P11926); assay: Cell-based ODC activity assay; conditions: 500 μM inhibitor, Figure 6A
T1 construct: host or cells: Kelly neuroblastoma cells
T1 sequence (P11926 1-461): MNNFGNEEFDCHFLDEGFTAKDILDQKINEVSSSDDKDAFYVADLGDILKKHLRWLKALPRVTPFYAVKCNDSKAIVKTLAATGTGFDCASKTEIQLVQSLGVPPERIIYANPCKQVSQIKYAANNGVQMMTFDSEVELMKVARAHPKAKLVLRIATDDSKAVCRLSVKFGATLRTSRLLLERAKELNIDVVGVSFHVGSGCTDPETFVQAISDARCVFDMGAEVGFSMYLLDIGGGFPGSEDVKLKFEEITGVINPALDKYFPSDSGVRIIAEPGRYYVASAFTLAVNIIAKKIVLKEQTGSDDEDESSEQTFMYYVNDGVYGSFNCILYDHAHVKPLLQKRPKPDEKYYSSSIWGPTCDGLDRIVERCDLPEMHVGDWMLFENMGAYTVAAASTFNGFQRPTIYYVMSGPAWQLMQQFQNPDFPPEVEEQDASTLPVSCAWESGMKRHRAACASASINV
Method: In vitro ODC activity was measured using 100 ng of purified human ODC enzyme, as we previously described.[53],[99] ODC was incubated with increasing concentrations of inhibitors for 30 min at room temperature in a buffer containing 25 mM Tris and 0.1 mM EDTA. Each of the reactions was added to 200 μL of assay mix containing 6.25 mM Tris HCl (pH 7.5), 100 μM L-ornithine, 50 μM pyridoxal-5-phosphate, 1.56 mM DTT and 0.1 μCi [1–14C] L-ornithine (American Radiolabeled Chemicals, Inc., specific activity 55 mCi/mmol) in a microcentrifuge tube. In the cell-based ODC activity assay, Kelly neuroblastoma cells that were treated with 500 μM inhibitors were harvested in a buffer containing 25 mM Tris HCl, 0.1 mM EDTA, and 2.5 mM DTT. Fifty microliters of each homogenate were added to 200 μL of assay mix containing 6.25 mM tris HCl (pH 7.5), 500 μM L-ornithine, 50 μM pyridoxal-5-phosphate, 1.56 mM DTT and 0.1 μCi [1–14C] L-ornithine (American Radiolabeled Chemicals, Inc., specific activity 55 mCi/mmol) in a microcentrifuge tube. […] Disintegrations per minute (DPM) of each sample was measured using a TriCarb liquid scintillation counter (PerkinElmer). The specific ODC activity is expressed as nmol CO2/min/mg protein (in vitro) or pmol CO2/min/mg protein (cell-based). The individual ODC inhibitor IC50 values were determined using Graphpad Prism 8.

[4] = test system: normal primary human neonatal fibroblast cells; assay: Sulforhodamine B (SRB) cytotoxicity assay, neonatal fibroblasts; type: cell-based; conditions: 500 μM; for Cell cytotoxicity (72 hr @ 500 μM) Neonatal Fibroblasts: percent cytotoxicity
Method: (§1) Our strategy to identify novel ODC inhibitors was to first screen new analogs for ODC inhibition at 50 μM using our in vitro enzyme activity assay and purified human ODC (Table 1). Those showing significant inhibition were then titrated to provide an ODC IC50 followed by cell-based screening against both cancer (Kelly neuroblastoma) and noncancerous (neonatal fibroblasts) cell lines. For the cancer cell line, higher cytotoxicity was desired and for the noncancerous cell line counter screen, lower cytotoxicity was desired.
(§2) Normal primary human neonatal fibroblast cells (ATCC) were maintained in DMEM medium (Gibco) supplemented with 10% heat-inactivated fetal bovine serum (Hyclone), penicillin (100 IU/mL), and streptomycin (100 μg/mL), nonessential amino acids (0.1 mM) and sodium pyruvate (1 mM). Kelly neuroblastoma cells (Sigma-Aldrich) were maintained in RPMI medium (Corning) supplemented with 10% heat-inactivated fetal bovine serum (Hyclone), penicillin (100 IU/mL), and streptomycin (100 μg/mL). Cell lines were routinely monitored for mycoplasma contamination using the MycoAlert PLUS Mycoplasma Detection Kit (Lonza).
(§3) The colorimetric sulforhodamine B (SRB) assay was used to measure cytotoxicity following treatment with ODC inhibitors. Briefly, Kelly neuroblastoma cells and normal primary human neonatal fibroblast cells were plated in transparent flat 96-well plates and allowed to attach overnight. Cells were treated with control or 500 μM ODC inhibitor for 72 h. Cells were then fixed with 10% TCA at 4 °C for 1 h, washed with deionized water, and dried at room temperature. Cells were stained with 100 μL of 0.4% SRB in 1% acetic acid for 20 min at room temperature, rinsed five times with 1% acetic acid and allowed to dry at room temperature. One hundred μL of 10 mM Tris–HCl pH 7.0 was added to each well, shaken for 10 min at room temperature and absorbance was read at 540 nm. Absorbance values were normalized relative to control readings and converted to percentage by multiplying by one hundred. The percent cytotoxicity was then determined by subtracting the relative percentage of the ODC inhibitor treated readings from the control which is 100%.

[5] = as above; type: cell-based, human; conditions: human, normal primary neonatal fibroblast cells; 72 hrs @500 µM; supplement csv
Method: as §1, §2, §3

[6] = molecular target: homogeneous liver adenosylmethionine decarboxylase; set-up: method as in PMID 3861182; conditions: irreversible; read-out: Ki, irreversible inhibitor of liver adenosylmethionine decarboxylase; cited from earlier work
[7] = molecular target: homogeneous mouse kidney ODC; set-up: method as in PMID 3861182; conditions: competitive; read-out: Ki, competitive inhibitor of mouse kidney ODC; cited from earlier work
[8] = cited from earlier work
[9] = molecular target: homogeneous bovine brain spermidine synthase; set-up: method as in PMID 3861182; conditions: competitive; read-out: Ki, competitive inhibitor of bovine brain spermidine synthase; cited from earlier work

| Compound | water solubility (in words) [1] | IC50 against human ODC (in words) [2] | potency against human ODC, times higher than that of DFMO [2] | endogenous cellular ODC activity relative to control (in words) [3] | cytotoxic activity against neonatal fibroblasts (in words) ([4]; 72 h) | Cell cytotoxicity (72 hr @ 500 μM) Neonatal Fibroblasts [4] | cytotoxicity at 72 h, 500 µM [5] | Ki [6] | Ki [7] | pKa of hydroxyl amine [8] | Ki [9] |
| --- | --- | --- | --- | --- | --- | --- | --- | --- | --- | --- | --- |
| NCCCON [APA, 3-(Aminooxy)propan-1-Amine Dihydrochloride] | highly water-soluble | low nM range | 10,000 times | significantly reduced | somewhat reduced overt cytotoxic activity | 37±10% | 37% | 50 µM | 0.0032 µM | ~5.9 | 2.3 µM |
| Cl.Cl.NOCC1(F)CCNC1 (centres unmarked) [Compound 11, 3-[(aminooxy)methyl]-3-fluoropyrrolidine di-formic acid] |  |  |  | greatest reduction |  | 21±17% | 21% |  |  |  |  |

From publication PMC11912471 (Journal of Medicinal Chemistry, 2025)
